Laboratory results published in patent publication US20230096517A1, “GLUTARIMIDE SKELETON-BASED COMPOUNDS AND APPLICATION THEREOF” (SHANGHAITECH UNIVERSITY, priority 2020, published 2023).

Test system: MM.1S cells
Experiment: Proliferation inhibition (IC50) in multiple myeloma cells, cell viability with WST/CCK-8 reagent;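 also: MM.1S B-lymphoblast cells at 15,000 per well in 100 µL serum-containing RPMI1640, experiment run more than three times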
Details: Homo sapiens, MM1.S, 72 h, read-out: IC50 (half inhibitory concentration)
Protocol: Multiple myeloma cell line: MM.1S (B lymphoblast), purchased from ATCC (American Type Culture Collection). Culture medium was RPMI1640 supplemented with 10% FBS and 1% Penicillin-Streptomycin. The cells used were identified as correct cells by STR cells and negative for mycoplasma by routine inspections.
IC50 values of the compounds of the present disclosure were measured using Cell Titer Blue, Cell Titer GLO, or WST reagent from Promega Company. Assay details are as follows: Cells were seeded in 100 μL RPMI1640 complete medium containing serum at a density of 15,000 cells/well.
The experiment was repeated more than three times.

Structure (SMILES)	IC50 [nM]
O=C1CCC(N2Cc3cc(CCCCCCCCNC45CC6CC(CC(C6)C4)C5)ccc3C2=O)C(=O)N1 (centres unmarked) [SIAIS271187, 3-(5-(8-((adamantan-1-yl)amino)octyl)-1-oxoisoindolin-2-yl)piperidine-2,6-dione]	17
O=C1CCC(N2Cc3c(NCCCCCCCN4CCCCC4)cccc3C2=O)C(=O)N1 (centres unmarked) [SIAIS1220125, 3-(1-oxo-4-((7-(piperidin-1-yl)heptyl)amino)isoindolin-2-yl)piperidine-2,6-dione, reference compound]	697
O=C1CCC(N2C(=O)c3cccc(NCCCCCCCN4CCCCC4)c3C2=O)C(=O)N1 (centres unmarked) [SIAIS1221047, 2-(2,6-dioxopiperidin-3-yl)-4-((7-(piperidin-1-yl)heptyl)amino)isoindoline-1,3-dione, reference compound]	0.78
O=C1CCC(N2C(=O)c3ccc(NCCCCCCCNC45CC6CC(CC(C6)C4)C5)cc3C2=O)C(=O)N1 (centres unmarked) [SIAIS1221055, 5-((7-((adamantan-1-yl)amino)heptyl)amino)-2-(2,6-dioxopiperidin-3-yl)isoindoline-1,3-dione]	1.43
O=C1CCC(N2C(=O)c3cccc(OCCCCCCCNC45CC6CC(CC(C6)C4)C5)c3C2=O)C(=O)N1 (centres unmarked) [SIAIS1221077, 4-((7-((adamantan-1-yl)amino)heptyl)oxy)-2-(2,6-dioxopiperidin-3-yl)isoindoline-1,3-dione]	5.53
O=C1CCC(N2C(=O)c3cccc(OCCCCCCCN4CCCCC4)c3C2=O)C(=O)N1 (centres unmarked) [SIAIS1221079, 2-(2,6-dioxopiperidin-3-yl)-4-((7-(piperidin-1-yl)heptyl)oxy)isoindoline-1,3-dione, reference compound]	65.9
O=C1CCC(N2Cc3c(NCCCCCCCNC45CC6CC(CC(C6)C4)C5)cccc3C2=O)C(=O)N1 (centres unmarked) [SIAIS1221091, 3-(4-((7-((adamantan-1-yl)amino)heptyl)amino)-1-oxoisoindolin-2-yl)piperidine-2,6-dione]	1.51
O=C1CCC(N2Cc3c(C#CCCCCCCNC45CC6CC(CC(C6)C4)C5)cccc3C2=O)C(=O)N1 (centres unmarked) [SIAIS1221095, 3-(4-(8-((adamantan-1-yl)amino)oct-1-yn-1-yl)-1-oxoisoindolin-2-yl)piperidine-2,6-dione]	2.21
O=C1CCC(N2Cc3c(CCCCCCCCNC45CC6CC(CC(C6)C4)C5)cccc3C2=O)C(=O)N1 (centres unmarked) [SIAIS1221105, 3-(4-(8-((adamantan-1-yl)amino)octyl)-1-oxoisoindolin-2-yl)piperidine-2,6-dione]	0.044
O=C1CCC(N2Cc3c(CCCCCCCCN4CCCCC4)cccc3C2=O)C(=O)N1 (centres unmarked) [SIAIS1221107, 3-(1-oxo-4-(8-(piperidin-1-yl)octyl)isoindolin-2-yl)piperidine-2,6-dione, reference compound]	3.93
O=C1CCC(N2Cc3c(OCCCCCCCN4CCCCC4)cccc3C2=O)C(=O)N1 (centres unmarked) [SIAIS1221109, 3-(1-oxo-4-((7-(piperidin-1-yl)heptyl)oxy)isoindolin-2-yl)piperidine-2,6-dione, reference compound]	17.6
CC1(C)[C@@H]2CC[C@@]1(C)[C@@H](NCc1ccc(CNc3cccc4c3C(=O)N(C3CCC(=O)NC3=O)C4=O)cc1)C2 (stereo partly drawn) [SIAIS1221173, 2-(2,6-dioxopiperidin-3-yl)-4-((4-((((1R,2S,4R)-1,7,7-trimethylbicyclo[2.2.1]heptan-2-yl)amino)methyl)benzyl)amino)isoindoline-1,3-dione]	1.09
O=C1CCC(N2Cc3c(OCCCCCCCNC4CCCCC4)cccc3C2=O)C(=O)N1 (centres unmarked) [SIAIS1221187, 3-(4-((7-(cyclohexylamino)heptyl)oxy)-1-oxoisoindolin-2-yl)piperidine-2,6-dione]	1.13
CC1(C)[C@@H]2CC[C@@]1(C)[C@@H](NCCCCCCCOc1cccc3c1CN(C1CCC(=O)NC1=O)C3=O)C2 (stereo partly drawn) [SIAIS1221189, 3-(1-oxo-4-((7-(((1R,2S,4R)-1,7,7-trimethylbicyclo[2.2.1]heptan-2-yl)amino)heptyl)oxy)isoindolin-2-yl)piperidine-2,6-dione]	1.2
O=C1CCC(N2Cc3c(CCCCCCCCNC4CCCCC4)cccc3C2=O)C(=O)N1 (centres unmarked) [SIAIS1221193, 3-(4-(8-(cyclohexylamino)octyl)-1-oxoisoindolin-2-yl)piperidine-2,6-dione]	0.854
O=C1CCC(N2Cc3c(CCCCCCCNCC45CC6CC(CC(C6)C4)C5)cccc3C2=O)C(=O)N1 (centres unmarked) [SIAIS1222021, 3-(4-(7-(((adamantan-1-yl)methyl)amino)heptyl)-1-oxoisoindolin-2-yl)piperidine-2,6-dione]	0.781

Structure (SMILES)	IC50 [nM]
O=C1CCC(N2Cc3c(NCc4ccc(CNC56CC7CC(CC(C7)C5)C6)cc4)cccc3C2=O)C(=O)N1 (centres unmarked) [SIAIS1222025, 3-(4-((4-(((adamantan-1-yl)amino)methyl)benzyl)amino)-1-oxoisoindolin-2-yl)piperidine-2,6-dione]	3.24
CN(CCCCCCCCc1cccc2c1CN(C1CCC(=O)NC1=O)C2=O)C12CC3CC(CC(C3)C1)C2 (centres unmarked) [SIAIS1222031, 3-(4-(8-((adamantan-1-yl)(methyl)amino)octyl)-1-oxoisoindolin-2-yl)piperidine-2,6-dione]	0.27
O=C1CCC(N2C(=O)c3cccc(NCc4ccc(CNC56CC7CC(CC(C7)C5)C6)cc4)c3C2=O)C(=O)N1 (centres unmarked) [SIAIS1222035, 4-((4-(((adamantan-1-yl)amino)methyl)benzyl)amino)-2-(2,6-dioxopiperidin-3-yl)isoindoline-1,3-dione]	2.46
O=C1CCC(N2C(=O)c3cccc(NCCCCCCNCC45CC6CC(CC(C6)C4)C5)c3C2=O)C(=O)N1 (centres unmarked) [SIAIS1222037, 4-((6-(((adamantan-1-yl)methyl)amino)hexyl)amino)-2-(2,6-dioxopiperidin-3-yl)isoindoline-1,3-dione]	0.13
O=C1CCC(N2C(=O)c3cccc(NCCCCCCCNC4CCCCC4)c3C2=O)C(=O)N1 (centres unmarked) [SIAIS1222039, 4-((7-(cyclohexylamino)heptyl)amino)-2-(2,6-dioxopiperidin-3-yl)isoindoline-1,3-dione]	0.326
CC1(C)[C@@H]2CC[C@@]1(C)[C@@H](NCCCCCCCNc1cccc3c1C(=O)N(C1CCC(=O)NC1=O)C3=O)C2 (stereo partly drawn) [SIAIS1222041, 2-(2,6-dioxopiperidin-3-yl)-4-((7-(((1R,2S,4R)-1,7,7-trimethylbicyclo[2.2.1]heptan-2-yl)amino)heptyl)amino)isoindoline-1,3-dione]	0.383
O=C1CCC(N2Cc3c(NCCCCCCCCNC45CC6CC(CC(C6)C4)C5)cccc3C2=O)C(=O)N1 (centres unmarked) [SIAIS1222045, 3-(4-((8-((adamantan-1-yl)amino)octyl)amino)-1-oxoisoindolin-2-yl)piperidine-2,6-dione]	3.78
O=C1CCC(N2Cc3c(C#CCCCCCCCNC45CC6CC(CC(C6)C4)C5)cccc3C2=O)C(=O)N1 (centres unmarked) [SIAIS1222047, 3-(4-(9-((adamantan-1-yl)amino)non-1-yn-1-yl)-1-oxoisoindolin-2-yl)piperidine-2,6-dione]	13
O=C1CCC(N2Cc3c(CCc4ccc(CNC56CC7CC(CC(C7)C5)C6)cc4)cccc3C2=O)C(=O)N1 (centres unmarked) [SIAIS1222051, 3-(4-(4-(((adamantan-1-yl)amino)methyl)phenethyl)-1-oxoisoindolin-2-yl)piperidine-2,6-dione]	4.1
O=C1CCC(N2Cc3c(CCc4ccc(CNCC56CC7CC(CC(C7)C5)C6)cc4)cccc3C2=O)C(=O)N1 (centres unmarked) [SIAIS1222053, 3-(4-(4-((((adamantan-1-yl)methyl)amino)methyl)phenethyl)-1-oxoisoindolin-2-yl)piperidine-2,6-dione]	1.61
CC1(C)[C@@H]2CC[C@@]1(C)[C@@H](NCc1ccc(CCc3cccc4c3CN(C3CCC(=O)NC3=O)C4=O)cc1)C2 (stereo partly drawn) [SIAIS1222055, 3-(1-oxo-4-(4-((((1R,2S,4R)-1,7,7-trimethylbicyclo[2.2.1]heptan-2-yl)amino)methyl)phenethyl)isoindolin-2-yl)piperidine-2,6-dione]	0.239
O=C1CCC(N2Cc3c(NCCCCCCNCC45CC6CC(CC(C6)C4)C5)cccc3C2=O)C(=O)N1 (centres unmarked) [SIAIS1222073, 3-(4-((6-(((adamantan-1-yl)methyl)amino)hexyl)amino)-1-oxoisoindolin-2-yl)piperidine-2,6-dione]	1.26
O=C1CCC(N2C(=O)c3cccc(NCCCCCCNC45CC6CC(CC(C6)C4)C5)c3C2=O)C(=O)N1 (centres unmarked) [SIAIS1222093, 4-((6-((adamantan-1-yl)amino)hexyl)amino)-2-(2,6-dioxopiperidin-3-yl)isoindoline-1,3-dione]	1.58
O=C1CCC(N2C(=O)c3cccc(NCCCCCNC45CC6CC(CC(C6)C4)C5)c3C2=O)C(=O)N1 (centres unmarked) [SIAIS1222095, 4-((5-((adamantan-1-yl)amino)pentyl)amino)-2-(2,6-dioxopiperidin-3-yl)isoindoline-1,3-dione]	1.1
O=C1CCC(N2Cc3c(OCCCCCCNC45CC6CC(CC(C6)C4)C5)cccc3C2=O)C(=O)N1 (centres unmarked) [SIAIS1222163, 3-(4-((6-((adamantan-1-yl)amino)hexyl)oxy)-1-oxoisoindolin-2-yl)piperidine-2,6-dione]	2.11
O=C1CCC(N2Cc3c(OCCCCCCNCC45CC6CC(CC(C6)C4)C5)cccc3C2=O)C(=O)N1 (centres unmarked) [SIAIS1222165, 3-(4-((6-(((adamantan-1-yl)methyl)amino)hexyl)oxy)-1-oxoisoindolin-2-yl)piperidine-2,6-dione]	0.204

Same assay, conditions: Homo sapiens, MM1.S, 72 h, read-out: IC50 (half inhibitory concentration), MM.1S multiple myeloma cells, WST reagent, 72 h treatment

Structure (SMILES)	IC50 [nM]
O=C1CCC(N2C(=O)c3cccc(NCCCCCCCNC45CC6CC(CC(C6)C4)C5)c3C2=O)C(=O)N1 (centres unmarked) [SIAIS1221053, 4-((7-((adamantan-1-yl)amino)heptyl)amino)-2-(2,6-dioxopiperidin-3-yl)isoindoline-1,3-dione]	0.16 ± 0.03
O=C1CCC(N2Cc3c(OCCCCCCCNC45CC6CC(CC(C6)C4)C5)cccc3C2=O)C(=O)N1 (centres unmarked) [SIAIS1221111, 3-(4-((7-((adamantan-1-yl)amino)heptyl)oxy)-1-oxoisoindolin-2-yl)piperidine-2,6-dione]	~0.09

Same assay, conditions: read-out: IC50 (half inhibitory concentration); MM.1S multiple myeloma cells, WST reagent, 72 h treatment

Structure (SMILES)	IC50 [nM]
O=C1CCC(N2Cc3c(OCCCCCCCNC45CC6CC(CC(C6)C4)C5)cccc3C2=O)C(=O)N1 (centres unmarked) [SIAIS1221111, 3-(4-((7-((adamantan-1-yl)amino)heptyl)oxy)-1-oxoisoindolin-2-yl)piperidine-2,6-dione]	0.089
